Format in all cases: cell-based
Assay [1] concerns the target α3β2T193C nAChR (Rattus norvegicus, UniProt P04757+P12390, T219C). The note with it: Hill coefficient.
For assay [2], the target named is α3β2 wt nAChR (Rattus norvegicus, UniProt P04757+P12390). The note with it: Hill coefficient.
Assay [3] concerns the target α3A106Cβ2 nAChR (Rattus norvegicus, UniProt P04757+P12390, A133C). As to conditions: Hill coefficient.
The target in assay [4] is α3T115Cβ2 nAChR (Rattus norvegicus, UniProt P04757+P12390, T142C). The note with it: Hill coefficient.
Sequence of α3T115Cβ2 nAChR (P04757 26-499 T142C): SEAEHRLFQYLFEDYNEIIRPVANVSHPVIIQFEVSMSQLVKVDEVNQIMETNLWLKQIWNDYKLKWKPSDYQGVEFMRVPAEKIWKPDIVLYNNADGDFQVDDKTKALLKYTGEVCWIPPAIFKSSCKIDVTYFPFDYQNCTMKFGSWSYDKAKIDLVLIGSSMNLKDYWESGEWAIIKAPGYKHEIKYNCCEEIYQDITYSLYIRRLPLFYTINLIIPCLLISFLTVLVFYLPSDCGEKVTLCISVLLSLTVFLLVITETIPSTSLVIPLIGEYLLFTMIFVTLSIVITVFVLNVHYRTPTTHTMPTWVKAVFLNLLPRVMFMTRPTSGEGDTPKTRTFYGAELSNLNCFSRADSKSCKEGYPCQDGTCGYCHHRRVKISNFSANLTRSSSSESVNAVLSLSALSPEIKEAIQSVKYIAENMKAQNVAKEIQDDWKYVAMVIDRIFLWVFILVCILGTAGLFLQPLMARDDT
Sequence of α3T115Cβ2 nAChR (P12390 25-500): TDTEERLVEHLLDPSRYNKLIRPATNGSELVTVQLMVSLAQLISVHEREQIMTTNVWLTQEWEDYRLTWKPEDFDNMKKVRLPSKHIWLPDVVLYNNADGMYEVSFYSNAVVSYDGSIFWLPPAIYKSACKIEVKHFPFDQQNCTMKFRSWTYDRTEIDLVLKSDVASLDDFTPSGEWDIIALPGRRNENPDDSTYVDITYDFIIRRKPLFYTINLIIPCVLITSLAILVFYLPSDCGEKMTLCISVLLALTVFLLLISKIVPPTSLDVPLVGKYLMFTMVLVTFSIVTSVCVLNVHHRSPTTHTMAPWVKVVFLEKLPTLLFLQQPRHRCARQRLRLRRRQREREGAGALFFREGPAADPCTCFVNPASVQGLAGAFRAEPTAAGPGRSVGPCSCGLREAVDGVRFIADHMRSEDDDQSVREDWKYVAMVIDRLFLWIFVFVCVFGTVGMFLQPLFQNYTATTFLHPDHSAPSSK
Assay [5] deals with α3S161Cβ2 nAChR (Rattus norvegicus, UniProt P04757+P12390, S188C). The note with it: Hill coefficient.
Sequence of α3S161Cβ2 nAChR (P04757 26-499 S188C): as the sequence (P04757 26-499 T142C) above, with C117T, S163C counted along it
Sequence of α3S161Cβ2 nAChR (P12390 25-500, stated change not applied): as the sequence (P12390 25-500) above
The target in assay [6] is α3β2S192C nAChR (Rattus norvegicus, UniProt P04757+P12390, S218C). As to conditions: Hill coefficient.
Sequence of α3β2S192C nAChR (P04757 26-499): as the sequence (P04757 26-499 T142C) above, with C117T counted along it
Sequence of α3β2S192C nAChR (P12390 25-500 S218C): as the sequence (P12390 25-500) above, with S194C counted along it
Assay [7] addresses α3β2T150C nAChR (Rattus norvegicus, UniProt P04757+P12390, T176C).
For assay [8], the target named is α3β2S148C nAChR (Rattus norvegicus, UniProt P04757+P12390, S174C). The note with it: Hill coefficient.
Sequence of α3β2S148C nAChR (P04757 26-499): as the sequence (P04757 26-499 T142C) above, with C117T counted along it
Sequence of α3β2S148C nAChR (P12390 25-500 S174C): as the sequence (P12390 25-500) above, with S150C counted along it

Sequence of α3β2T150C nAChR (P04757 26-499): as the sequence (P04757 26-499 T142C) above, with C117T counted along it
Sequence of α3β2T150C nAChR (P12390 25-500 T176C): as the sequence (P12390 25-500) above, with T152C counted along it
Sequence of α3β2 wt nAChR (P04757 26-499): as the sequence (P04757 26-499 T142C) above, with C117T counted along it
Sequence of α3β2 wt nAChR (P12390 25-500): as the sequence (P12390 25-500) above
Sequence of α3β2T193C nAChR (P04757 26-499): as the sequence (P04757 26-499 T142C) above, with C117T counted along it
Sequence of α3β2T193C nAChR (P12390 25-500 T219C): as the sequence (P12390 25-500) above, with T195C counted along it
Sequence of α3A106Cβ2 nAChR (P04757 26-499 A133C): as the sequence (P04757 26-499 T142C) above, with A108C, C117T counted along it
Sequence of α3A106Cβ2 nAChR (P12390 25-500): as the sequence (P12390 25-500) above

With `CC(=O)OCC[N+](C)(C)C` [ACh], the “ACh Response nH” value in assay [1] came out at 0.74 ± 0.07; in assay [2] it was 0.82 ± 0.06; in assay [3], 0.64 ± 0.04; in assay [4], 0.96 ± 0.09; in assay [5], 0.77 ± 0.07; in assay [6], 0.57 ± 0.05. In addition, the “ACh Response nH” value in assay [7] (Hill coefficient, pre-treatment in Fig. 4) worked out at 0.84 ± 0.06; in assay [8], 0.79 ± 0.08. For the same molecule, the “ACh nH, +Mor data set, pre-treatment” value in assay [7] (ACh + 10 μM Mor) came out at 1.13 ± 0.24. Further, in assay [7] (ACh + 10 μM Mor, after 100 μM MTSET + 200 μM ACh), the “ACh nH, +Mor data set, post-treatment” value was found to be 0.98 ± 0.02. In assay [7] (ACh + 10 μM Mor, normalized to ACh response at 1000 μM), the “ACh Emax, +Mor data set, pre-treatment” value turned out to be 1.33 ± 0.05. In addition, the “ACh nH post-treatment” value in assay [7] (after 100 μM MTSET + 200 μM ACh) came to 0.79 ± 0.11. For the same molecule, the “ACh Emax post-treatment” value in assay [7] (after 100 μM MTSET + 200 μM ACh, normalized to ACh response at 1000 μM) is recorded as 0.26 ± 0.01. Also, in assay [7] (normalized to ACh response at 1000 μM), the “ACh Emax pre-treatment” value worked out at 1.00.
Regarding `C[N+](C)(C)CCOC(=O)CBr` [BrACh], the “reduction of maximum Mor-evoked current (efficacy)” value in assay [7] (after 100 μM reagent, four 30-sec doses) is recorded as “very little effect”.

For the origin of these results see publication PMC2726771 (The Journal of neuroscience : the official journal of the …, 2009).
